Source: ChEMBL document CHEMBL2321873, “1-(4-Phenylpiperazin-1-yl)-2-(1H-pyrazol-1-yl)ethanones as novel CCR1 antagonists” (Bioorg Med Chem Lett, 2013)
The source made the active and inactive calls. The calls are words filed in the database; no cut-off is given here.

Legend:
[1] = molecular target: T1, C-X-C chemokine receptor type 2 (Homo sapiens) (UniProt P25025); test: Antagonist activity at CXCR2 (unknown origin) assessed as inhibition of calcium flux at 10 uM; format: functional
T1 sequence (whole entry): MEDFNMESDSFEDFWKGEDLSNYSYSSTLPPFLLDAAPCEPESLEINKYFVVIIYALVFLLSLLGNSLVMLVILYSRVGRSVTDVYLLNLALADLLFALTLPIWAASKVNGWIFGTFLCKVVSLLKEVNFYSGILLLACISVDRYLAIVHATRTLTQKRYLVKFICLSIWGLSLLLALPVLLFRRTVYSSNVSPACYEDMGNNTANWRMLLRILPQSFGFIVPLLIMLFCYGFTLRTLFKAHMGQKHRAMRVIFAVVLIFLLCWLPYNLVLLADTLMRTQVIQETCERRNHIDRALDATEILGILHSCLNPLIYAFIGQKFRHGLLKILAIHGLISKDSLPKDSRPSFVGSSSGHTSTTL

[2] = molecular target: T2, C-C chemokine receptor type 3 (Homo sapiens) (UniProt P51677); test: Antagonist activity at CCR3 (unknown origin) assessed as inhibition of chemotaxis at 10 uM
T2 sequence (whole entry): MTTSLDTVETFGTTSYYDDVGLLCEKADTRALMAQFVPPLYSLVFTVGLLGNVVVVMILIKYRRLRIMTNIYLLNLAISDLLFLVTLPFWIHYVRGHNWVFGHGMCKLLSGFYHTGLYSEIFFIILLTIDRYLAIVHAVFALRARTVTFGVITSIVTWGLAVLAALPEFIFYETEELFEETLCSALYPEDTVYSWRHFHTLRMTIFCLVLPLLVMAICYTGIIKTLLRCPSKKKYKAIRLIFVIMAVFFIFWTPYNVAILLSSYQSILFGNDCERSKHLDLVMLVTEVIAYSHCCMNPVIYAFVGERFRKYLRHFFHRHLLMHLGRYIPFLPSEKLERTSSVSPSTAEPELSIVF

[3] = molecular target: C-X-C chemokine receptor type 4 (Homo sapiens) (UniProt P61073); test: Antagonist activity at CXCR4 (unknown origin) assessed as inhibition of calcium flux at 10 uM; format: functional
C-X-C chemokine receptor type 4 (Homo sapiens), sequence (P61073 whole entry): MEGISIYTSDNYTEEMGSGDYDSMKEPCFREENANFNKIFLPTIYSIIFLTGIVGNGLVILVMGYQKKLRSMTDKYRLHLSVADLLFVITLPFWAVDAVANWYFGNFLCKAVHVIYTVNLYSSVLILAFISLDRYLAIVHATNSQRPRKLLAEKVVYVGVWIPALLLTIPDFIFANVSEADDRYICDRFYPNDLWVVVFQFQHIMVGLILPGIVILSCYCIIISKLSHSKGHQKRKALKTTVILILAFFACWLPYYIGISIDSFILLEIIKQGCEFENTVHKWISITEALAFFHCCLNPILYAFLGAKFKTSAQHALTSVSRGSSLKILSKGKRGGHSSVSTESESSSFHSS

[4] = molecular target: C-C chemokine receptor type 5 (Homo sapiens) (UniProt P51681); test: Binding affinity to CCR5 (unknown origin) at 10 uM by radioligand displacement assay
C-C chemokine receptor type 5 (Homo sapiens), sequence (P51681 whole entry, looked up): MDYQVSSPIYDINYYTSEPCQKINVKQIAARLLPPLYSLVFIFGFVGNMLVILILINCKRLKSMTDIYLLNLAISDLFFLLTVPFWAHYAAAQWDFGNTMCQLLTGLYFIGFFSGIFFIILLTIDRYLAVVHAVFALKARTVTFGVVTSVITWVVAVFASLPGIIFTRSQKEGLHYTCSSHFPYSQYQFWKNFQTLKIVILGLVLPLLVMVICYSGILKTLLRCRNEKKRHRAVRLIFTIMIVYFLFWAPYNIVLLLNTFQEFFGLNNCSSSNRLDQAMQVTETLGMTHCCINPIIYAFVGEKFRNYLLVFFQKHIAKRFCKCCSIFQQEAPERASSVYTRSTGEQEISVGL

[5] = molecular target: T3, C-C chemokine receptor type 10 (Homo sapiens) (UniProt P46092); test: Antagonist activity at CCR10 (unknown origin) assessed as inhibition of calcium flux at 10 uM; format: functional
T3 sequence (whole entry): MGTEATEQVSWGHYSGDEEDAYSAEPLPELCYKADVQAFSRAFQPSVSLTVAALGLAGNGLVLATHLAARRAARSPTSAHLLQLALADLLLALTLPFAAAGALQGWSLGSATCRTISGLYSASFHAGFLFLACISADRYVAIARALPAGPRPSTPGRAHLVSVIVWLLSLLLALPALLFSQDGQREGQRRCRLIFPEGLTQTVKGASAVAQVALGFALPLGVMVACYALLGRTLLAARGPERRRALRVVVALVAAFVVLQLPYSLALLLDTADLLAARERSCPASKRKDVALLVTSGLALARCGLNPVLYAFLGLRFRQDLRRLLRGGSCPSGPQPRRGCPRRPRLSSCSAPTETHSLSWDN

Rattus norvegicus = test: Toxicity in Sprague-Dawley rat assessed as effect on blood chemistry at 70 to 360 mg/kg, po after 7 days; format: organism-based; parameters: dose 70-360 mg/kg, route oral; conditions: in vivo, 168 h
[6] = molecular target: C-C chemokine receptor type 5 (Homo sapiens) (UniProt P51681); test: Antagonist activity at CCR5 (unknown origin) assessed as inhibition of calcium flux at 10 uM; format: functional
Cytomegalovirus = test: Antagonist activity at CMV US28 assessed as inhibition of calcium flux at 10 uM
[7] = molecular target: T4, C-X-C chemokine receptor type 5 (Homo sapiens) (UniProt P32302); test: Binding affinity to CXCR5 (unknown origin) at 10 uM by radioligand displacement assay
T4 sequence (whole entry): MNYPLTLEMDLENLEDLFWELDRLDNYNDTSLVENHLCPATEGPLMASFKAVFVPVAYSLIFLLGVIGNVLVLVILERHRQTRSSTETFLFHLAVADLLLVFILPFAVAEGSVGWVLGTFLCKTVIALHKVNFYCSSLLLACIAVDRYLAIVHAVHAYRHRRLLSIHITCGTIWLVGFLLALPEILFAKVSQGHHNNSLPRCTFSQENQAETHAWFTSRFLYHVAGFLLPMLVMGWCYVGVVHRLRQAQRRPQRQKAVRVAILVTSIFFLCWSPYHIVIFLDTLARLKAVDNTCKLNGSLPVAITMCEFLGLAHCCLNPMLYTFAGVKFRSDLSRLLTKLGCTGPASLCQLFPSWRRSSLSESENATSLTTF

[8] = molecular target: T5, Atypical chemokine receptor 1 (Homo sapiens) (UniProt Q16570); test: Antagonist activity at Duffy (unknown origin) assessed as inhibition of calcium flux at 10 uM; format: functional
T5 sequence (whole entry): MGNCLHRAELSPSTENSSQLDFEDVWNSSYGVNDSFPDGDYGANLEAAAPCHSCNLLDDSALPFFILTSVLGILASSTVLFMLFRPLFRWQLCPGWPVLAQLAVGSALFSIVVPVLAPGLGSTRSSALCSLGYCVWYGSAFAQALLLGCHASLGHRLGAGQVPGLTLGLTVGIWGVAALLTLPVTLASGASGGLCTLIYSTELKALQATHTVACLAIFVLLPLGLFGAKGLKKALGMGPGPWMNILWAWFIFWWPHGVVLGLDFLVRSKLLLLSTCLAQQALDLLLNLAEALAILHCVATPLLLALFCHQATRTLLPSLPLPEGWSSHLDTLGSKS

[9] = molecular target: C-C chemokine receptor type 5 (Homo sapiens) (UniProt P51681); test: Antagonist activity at CCR5 (unknown origin) assessed as inhibition of chemotaxis at 10 uM
[10] = molecular target: C-C chemokine receptor type 8 (Homo sapiens) (UniProt P51685); test: Antagonist activity at CCR8 (unknown origin) assessed as inhibition of chemotaxis at 10 uM
C-C chemokine receptor type 8 (Homo sapiens), sequence (P51685 whole entry): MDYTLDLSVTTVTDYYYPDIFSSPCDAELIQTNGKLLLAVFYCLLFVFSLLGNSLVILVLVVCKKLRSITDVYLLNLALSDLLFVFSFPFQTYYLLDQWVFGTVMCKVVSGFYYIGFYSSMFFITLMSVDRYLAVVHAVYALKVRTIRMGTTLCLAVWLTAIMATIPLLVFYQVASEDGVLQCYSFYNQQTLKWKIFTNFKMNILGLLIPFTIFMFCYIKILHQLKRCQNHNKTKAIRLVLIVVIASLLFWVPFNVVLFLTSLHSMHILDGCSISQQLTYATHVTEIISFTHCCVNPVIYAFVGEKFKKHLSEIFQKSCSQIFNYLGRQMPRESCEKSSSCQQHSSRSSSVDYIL

Cytochrome P450 2D6 = Cytochrome P450 2D6 (Homo sapiens, UniProt P10635); test: Competitive inhibition of CYP2D6 (unknown origin); format: ADME
Cytochrome P450 2D6, sequence (P10635 whole entry): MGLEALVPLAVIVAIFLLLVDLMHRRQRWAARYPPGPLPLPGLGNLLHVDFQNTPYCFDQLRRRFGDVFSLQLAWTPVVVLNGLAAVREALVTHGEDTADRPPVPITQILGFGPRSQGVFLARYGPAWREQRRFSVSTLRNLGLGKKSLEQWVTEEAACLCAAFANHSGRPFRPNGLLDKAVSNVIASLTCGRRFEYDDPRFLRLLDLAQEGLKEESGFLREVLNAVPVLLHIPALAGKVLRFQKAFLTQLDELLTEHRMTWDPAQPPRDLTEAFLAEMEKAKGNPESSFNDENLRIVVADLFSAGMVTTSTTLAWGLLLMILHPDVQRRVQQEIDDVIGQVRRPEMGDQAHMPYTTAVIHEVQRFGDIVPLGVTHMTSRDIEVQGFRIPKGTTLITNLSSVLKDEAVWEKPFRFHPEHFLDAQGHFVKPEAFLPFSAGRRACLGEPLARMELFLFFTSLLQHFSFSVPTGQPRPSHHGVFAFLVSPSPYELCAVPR

[11] = molecular target: T6, CX3C chemokine receptor 1 (Homo sapiens) (UniProt P49238); test: Antagonist activity at CX3CR1 (unknown origin) assessed as inhibition of calcium flux at 10 uM; format: functional
T6 sequence (whole entry): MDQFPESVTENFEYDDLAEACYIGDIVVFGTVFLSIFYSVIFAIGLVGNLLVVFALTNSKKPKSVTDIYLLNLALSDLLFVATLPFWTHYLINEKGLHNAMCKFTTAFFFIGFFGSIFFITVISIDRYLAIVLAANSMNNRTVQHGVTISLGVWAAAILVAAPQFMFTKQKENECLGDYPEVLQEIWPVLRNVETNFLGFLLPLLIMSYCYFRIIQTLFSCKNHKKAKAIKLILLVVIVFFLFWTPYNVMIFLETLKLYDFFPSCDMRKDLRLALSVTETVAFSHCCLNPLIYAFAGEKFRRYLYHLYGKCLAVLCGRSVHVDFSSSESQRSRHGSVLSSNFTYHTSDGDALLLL

[12] = molecular target: T1, C-X-C chemokine receptor type 2 (Homo sapiens); test: Binding affinity to CXCR2 (unknown origin) at 10 uM by radioligand displacement assay

`COc1cc(N2CCN(C(=O)Cn3nc(C(F)(F)F)c(Cl)c3C)CC2)ccc1Cl` was tested, and the inhibition [1] was “inactive”, the inhibition [2] was “inactive” and the inhibition [3] was “inactive”. For the same compound, the Activity [4] was “inactive”, the inhibition [5] was “inactive” and the Activity (Rattus norvegicus) was “Non-toxic”. For the same compound, the inhibition [6] was “inactive”, the inhibition (Cytomegalovirus) was “inactive” and the Activity [7] was “inactive”. The inhibition [8] was “inactive”, the inhibition [9] was “inactive” and the inhibition [10] was “inactive”. The IC50 (Cytochrome P450 2D6) was > 10 µM, the inhibition [11] was “inactive” and the Activity [12] was “inactive”.
